Results published in article PMC10974579, “A Monocarbonyl Curcuminoid Derivative Inhibits the Activity of Human Glutathione Transferase A4-4 and Chemosensitizes Glioblastoma Cells to Temozolomide” (Pharmaceuticals, 2024).
Where two headings read alike, the source gives them in different places.

Experiments:
hGSTA4-4 = biological target: T1, hGSTA4-4 (Homo sapiens, UniProt O15217); experiment: hGSTA4-4 enzyme inhibition assay (CDNB-GSH conjugation, 340 nm); conditions: for Enzyme Inhibition (%): hGSTA4-4, compound at 100 μM, mean of three experiments, 100 µM; for inhibition at 100 µM: read-out: Enzyme Inhibition (%), hGSTA4-4, compound at 100 μM, mean of three experiments
T1 sequence (O15217 1-222): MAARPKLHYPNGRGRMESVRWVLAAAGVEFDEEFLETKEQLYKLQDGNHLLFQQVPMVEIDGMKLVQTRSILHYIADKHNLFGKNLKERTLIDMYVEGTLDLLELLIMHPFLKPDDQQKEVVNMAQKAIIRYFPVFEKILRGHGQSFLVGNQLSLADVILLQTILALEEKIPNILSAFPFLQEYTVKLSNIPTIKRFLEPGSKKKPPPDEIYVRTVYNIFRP
Method: hGSTA4-4 activity was determined by monitoring (at 25 °C) the formation of the conjugate between CDNB and GSH at 340 nm (ε = 9600 L·mol^−1·cm^−1) for 120 s, as previously described [58]. One unit of enzyme activity is defined as the amount of enzyme that produces 1.0 μmol of product per minute under the assay conditions. The tested natural products and monocarbonyl curcumin derivatives were dissolved in DMSO (100 μΜ) and added to the assay mixture (the volume of DMSO was maintained at a 2% v/v final concentration). Initial velocities were determined in triplicates and were corrected for spontaneous reaction rates, when necessary. […] The IC50 values were determined from a graph of the remaining enzyme activity (%) against inhibitor concentration. The computer program GraphPad Prism version 8 (GraphPad Prism Software, Inc., Boston, MA, USA) was used for producing kinetic graphs and determining apparent kinetic parameters/constants and IC50 values.

U-251 MG cells [1] = experiment: TMZ sensitization experiment, MTT assay, U-251 MG; format: cell-based, human
Method: Cell cultures were maintained in flasks and grown at 37 °C in a humidified atmosphere of 5% CO2. […] Cells were seeded in 96-well plates (8 × 10^3 cells/well in 100 μL culture medium) and grown overnight at 37 °C in a 5% CO2 incubator. Exponentially growing cells were incubated for 48 h with various concentrations ranging between 10^−3 and 10^−8 M of each compound. The final DMSO concentration never exceeded 0.2%. The medium was then removed and replaced with 100 μL MTT solution (1 mg/mL). After 4 h incubation, the solution was aspirated, formazan crystals were solubilized in 100 μL DMSO, and the absorbance was recorded at 540 nm (Tecan well plate reader). The same procedure was followed for the TMZ sensitization experiments. […] Data were analyzed using the GraphPad Prism 5.0 software.

[2] = In vitro cytotoxicity, MTT assay, U-251 MG; format: cell-based, human; conditions: human, U-251 MG cells, pH 7.4, U-251 MG cells
Method: (§1) U-251 and U-87 MG cells were grown in Dulbecco’s modified Eagle’s growth medium (pH 7.4) supplemented with 10% FBS, 100 U/mL penicillin, 2 mM glutamine, and 100 μg/mL streptomycin. Cell cultures were maintained in flasks and grown at 37 °C in a humidified atmosphere of 5% CO2. Subconfluent cells were detached using 0.05% (w/v) trypsin−0.25% (w/v) ethylenediaminetetraacetic acid solution at a subcultivation ratio of 1:2 to 1:5. […] Cells were seeded in 96-well plates (8 × 10^3 cells/well in 100 μL culture medium) and grown overnight at 37 °C in a 5% CO2 incubator. Exponentially growing cells were incubated for 48 h with various concentrations ranging between 10^−3 and 10^−8 M of each compound. The final DMSO concentration never exceeded 0.2%. The medium was then removed and replaced with 100 μL MTT solution (1 mg/mL). After 4 h incubation, the solution was aspirated, formazan crystals were solubilized in 100 μL DMSO, and the absorbance was recorded at 540 nm (Tecan well plate reader). The same procedure was followed for the TMZ sensitization experiments. […] Data were analyzed using the GraphPad Prism 5.0 software.

U-251 MG cells [3] = experiment: In vitro cytotoxicity, MTT assay, U-251 MG; format: cell-based, human; conditions: 48 h
Method: as §1

U-87 MG cells [4] = experiment: In vitro cytotoxicity, MTT assay, U-87 MG; format: cell-based, human; conditions: 48 h
Method: as §1

[5] = In vitro cytotoxicity, MTT assay, U-87 MG; format: cell-based, human; conditions: human, U-87 MG cells, pH 7.4, U-87 MG cells
Method: as §1

hGSTP1-1 = biological target: hGSTP1-1; design: method as in PMID 36670925; conditions: cited from earlier work; for Ki: read-out: inhibition constant Ki
U-87 MG cells [6] = conditions: cited from earlier work

Row | Enzyme Inhibition (%) (hGSTA4-4) | inhibition at 100 µM (hGSTA4-4) [%] | Structure (SMILES) | further results
1 |  | 27.3 | O=C(O)/C=C/c1ccc(O)cc1 [Coumaric Acid] | 
2 |  | 80.9 | COc1cc(/C=C/C(=O)CC(=O)/C=C/c2ccc(O)c(OC)c2)ccc1O [Curcumin] | 
3 |  | 64.9 | COc1ccc(/C=C2\CCC/C(=C\c3ccc(OC)cc3)C2=O)cc1 [DM46] | 
4 |  | 54.8 | COc1ccc(/C=C/C(=O)/C=C/c2ccc(OC)c(OC)c2)cc1OC [DM95] | 
5 | 81.8 | > 90 | O=C(/C=C/c1ccc(O)cc1)/C=C/c1ccc(O)cc1 [DM96] | 
6 | 95.1 | > 90 | COc1cc(/C=C2\CCC/C(=C\c3ccc(O)c(OC)c3)C2=O)ccc1O [DM100] | IC50 (hGSTA4-4): 16.9 ± 0.4 µM
7 |  | 73.9 | O=C(/C=C/c1ccc(F)cc1)/C=C/c1ccc(F)cc1 [DM109] | 
8 |  | 28.5 | O=C1C[C@@H](c2ccc(O)cc2)Oc2cc(O)cc(O)c21 [Naringenin] | 
9 |  | 32.3 | OC[C@H]1O[C@@H](Oc2cc(O)cc(/C=C/c3ccc(O)cc3)c2)[C@H](O)[C@@H](O)[C@@H]1O [Polydatin] | 
10 | 8.87 | 8.9 | Oc1ccc(/C=C/c2cc(O)cc(O)c2)cc1 [Resveratrol] | 
11 | 40.37 | 40 | O=C1c2c(O)cc(O)cc2O[C@H](c2ccc(O)c(O)c2)[C@H]1O [Taxifolin hydrate] | 

Further lines, the compound ahead of its results:

Row | Structure (SMILES) | Enzyme Inhibition (%) (hGSTA4-4) | inhibition at 100 µM (hGSTA4-4) [%] | further results
12 | COc1cc2c(c(OC)c1OC)-c1ccc(OC)c(=O)cc1[C@@H](NC(C)=O)CC2 [Colchicine] | 17.1 | 17 | 
13 | COc1ccc(/C=C2\CCC/C(=C\c3ccc(OC)c(OC)c3)C2=O)cc1OC [DM57] |  | 55.7 | 
14 | O=C1/C(=C/c2ccc(F)cc2)CCC/C1=C\c1ccc(F)cc1 [DM62] |  | 74.9 | 
15 | COc1cc(/C=C/C(=O)/C=C/c2ccc(O)c(OC)c2)ccc1O [DM101] | 94.1 | > 90 | IC50 (hGSTA4-4): 12.7 ± 1.1 µM
16 | O=C(/C=C/c1ccc(O)c(O)c1)/C=C/c1ccc(O)c(O)c1 [DM148] |  | 4.6 | cell survival (U-251 MG cells [1]; 48 h, compound alone at 10 μM): > 85%; change of cell survival in combination with TMZ (U-251 MG cells [1]; compound 10 μM + TMZ 150 μM, added together or 3 or 6 h pre-incubation, 48 h): did not result in any dramatic changes; IC50 at 48 h [2]: 89.2 µM; IC50 (U-251 MG cells [3]): 89.2 ± 3.41 µM; IC50 (U-87 MG cells [4]): 91.1 ± 5.64 µM; IC50 at 48 h [5]: 91.1 µM
17 | O=C1/C(=C/c2ccc(O)c(O)c2)CCC/C1=C\c1ccc(O)c(O)c1 [DM151] |  |  | cell survival in combination with TMZ (U-251 MG cells [1]; 3 h pretreatment with compound 10 μM, then TMZ 150 μM 48 h): 45%; cell survival in combination with TMZ (U-251 MG cells [1]; 6 h pretreatment with compound 10 μM, then TMZ 150 μM 48 h): approximately 35%; cell survival (U-251 MG cells [1]; 48 h, compound alone at 10 μM): > 85%; cell survival in combination with TMZ (U-251 MG cells [1]; compound 10 μM + TMZ 150 μM added together, 48 h): 55%; Ki (hGSTP1-1; hGSTP1-1, CDNB substrate): 9.55 µM; type of inhibition (hGSTP1-1; hGSTP1-1, both GSH and CDNB substrates): purely non-competitive; Ki (hGSTP1-1; hGSTP1-1, variable substrate GSH): 5.79 µM; IC50 at 48 h [2]: 25.5 µM; IC50 (U-251 MG cells [3]): 25.6 ± 4.83 µM; IC50 (U-87 MG cells [4]): 18.9 ± 5.81 µM; IC50 at 48 h [5]: 18.9 µM
18 | O=c1oc2c(O)c(O)cc3c(=O)oc4c(O)c(O)cc1c4c23 [Ellagic acid, Ellagic Acid] | 95.1 | 95 | IC50 (U-87 MG cells [6]; 48 h treatment, read-out: IC50 (cytotoxicity)): 91.2 µM; IC50 (hGSTA4-4): 0.44 ± 0.01 µM
19 | O=C(O[C@@H]1Cc2c(O)cc(O)cc2O[C@@H]1c1cc(O)c(O)c(O)c1)c1cc(O)c(O)c(O)c1 [Epigallocatechin gallate] |  | 86.4 | 
20 | O=C(O)c1cc(O)c(O)c(O)c1 [Gallic acid] |  | 20.8 | 
21 | O=c1c(O)c(-c2ccc(O)c(O)c2)oc2cc(O)cc(O)c12 [Quercetin] |  | 84.7 | 
22 | CC1=C(C=O)C(C)(C)CC=C1 [Safranal] |  | 21.8 | 
23 | Cn1nnc2c(C(N)=O)ncn2c1=O [TMZ, temozolomide] |  |  | cell survival (U-251 MG cells [1]; 48 h, TMZ alone at 150 μM): > 85%; IC50 (U-87 MG cells [6]; 48 h, interquartile range, read-out: IQR of IC50): 92 to 590 µM; IC50 (U-87 MG cells [6]; 48 h, read-out: median IC50): 223 µM
